The values that follow come from BindingDB's records for doi:10.7270/Q2TX3CTT (Broad Institute, 2010).

One may read the EC50 as the concentration at which the effect is half-maximal. A lower EC50 goes with an effect from little substance.

Where a name gives a salt, the structure may show the parent alone.

This experiment deals with Glycogen synthase kinase-3 beta (Homo sapiens, UniProt P49841). In words: GSK3beta kinase inhibitor potency, dose response, biochemical, luminescence, cell-free homogeneous, retest (AID 434954).
Sequence of Glycogen synthase kinase-3 beta (P49841 whole entry): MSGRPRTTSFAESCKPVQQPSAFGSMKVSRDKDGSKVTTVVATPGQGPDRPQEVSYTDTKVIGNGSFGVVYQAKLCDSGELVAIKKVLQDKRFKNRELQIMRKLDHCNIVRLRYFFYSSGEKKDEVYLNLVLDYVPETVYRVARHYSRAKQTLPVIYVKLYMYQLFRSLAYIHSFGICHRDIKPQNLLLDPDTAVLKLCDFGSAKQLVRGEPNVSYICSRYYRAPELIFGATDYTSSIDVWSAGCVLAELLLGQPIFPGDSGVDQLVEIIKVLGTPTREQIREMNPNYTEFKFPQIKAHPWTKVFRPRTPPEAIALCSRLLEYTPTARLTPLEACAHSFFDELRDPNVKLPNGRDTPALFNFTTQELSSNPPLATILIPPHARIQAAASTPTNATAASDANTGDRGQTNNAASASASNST
For the compound `CCC(C)NCCOCCOc1ccc(Cl)cc1Br` (configuration not stated) [N-[2-[2-(2-bromo-4-chlorophenoxy)ethoxy]ethyl]-2-butanamine;oxalic acid], the EC50 was greater than 300 µM.

Take `O=C(CCC1CCN(C(=O)c2cc(C(F)(F)F)ccc2Cl)CC1)NC1CC1` [3-[1-[2-chloro-5-(trifluoromethyl)benzoyl]piperidin-4-yl]-N-cyclopropylpropanamide]: the EC50 was greater than 300 µM.

Compound `Cc1cc(NC(=O)CCN2CCC(C)CC2)ccc1Br` [N-(4-bromo-3-methylphenyl)-3-(4-methyl-1-piperidinyl)propanamide;hydrochloride] registered an EC50 greater than 300 µM.

`Nc1nc(NCc2ccco2)nc(NC2CCCCC2)c1[N+](=O)[O-]` [MLS000769818] showed an EC50 greater than 300 µM.

For `O=C1NCCCc2c1oc1cc(Br)c(O)c(Br)c21` [MLS000043345], the EC50 amounted to 40.7 µM.

In the case of `Cc1ccc(C(=O)Nc2ccc(S(=O)(=O)NCc3ccco3)cc2)cc1` [SMR000123393], the EC50 is greater than 300 µM.

In turn, `CC1=C(C#N)C(=O)NC(=O)C1=NNc1cccc(C)c1` [(5Z)-4-methyl-5-[(3-methylphenyl)hydrazinylidene]-2,6-bis(oxidanylidene)pyridine-3-carbonitrile] yielded an EC50 of 0.775 µM.

In the case of `COc1ccccc1Nc1nc(NCc2ccco2)nc(N)c1[N+](=O)[O-]` [SMR000436038], the EC50 was greater than 300 µM.

`O=C(Nc1ccc(O)c2c(=O)cc(-c3ccccc3Cl)oc12)c1ccccc1Cl` returned an EC50 greater than 300 µM.

`CN(C)Cc1c(C(=O)NN=Cc2ccccc2OCc2c(F)cccc2Cl)nnn1-c1nonc1N` [1-(4-azanyl-1,2,5-oxadiazol-3-yl)-N-[[2-[(2-chloranyl-6-fluoranyl-phenyl)methoxy]phenyl]methylideneamino]-5-[(dimethylamino)methyl]-1,2,3-triazole-4-carboxamide] displayed an EC50 of 0.116 µM.

The compound `C=CCNc1nc(N)c([N+](=O)[O-])c(Nc2cccc(Cl)c2)n1` [N4-(3-chlorophenyl)-5-nitro-N2-prop-2-enyl-pyrimidine-2,4,6-triamine] displayed an EC50 of 11.8 µM.

Compound `Cc1cccc(CSc2ccc3nnc(-c4cccs4)n3n2)c1` [SMR000236998] showed an EC50 greater than 300 µM.

Consider `CN(C)S(=O)(=O)c1cc(NC(=O)CN2CCN(c3ccc(O)cc3)CC2)ccc1Cl` [MLS000774170], for which the EC50 is greater than 300 µM.

As for `Cc1ccc(CSc2nnc(-c3ccncc3)o2)c(C)c1` [SMR000280552], the EC50 came out at 14.5 µM.

With `Cc1ccc(N(c2ncnc(N)c2[N+](=O)[O-])C2CCCCC2)cc1` [N-cyclohexyl-N-(4-methylphenyl)-5-nitro-4,6-pyrimidinediamine], the EC50 is greater than 300 µM.

Regarding `C=CCOc1ccc(CN=Nc2ccccn2)cc1OC` [N-[(3-methoxy-4-prop-2-enoxyphenyl)methylideneamino]pyridin-2-amine], the EC50 was greater than 300 µM.

As for `COC(=O)c1nnn(-c2nonc2N)c1-c1cccs1` [1-(4-amino-1,2,5-oxadiazol-3-yl)-5-thiophen-2-yl-4-triazolecarboxylic acid methyl ester], a half-maximal response (EC50) required 26.2 µM.

In the case of `COc1nc(NCCN2CCOCC2)nc(Nc2ccc([N+](=O)[O-])cc2)n1`, the EC50 was greater than 300 µM.

Turning to `CCCCCCCCCCCCC(=O)CCCCC(=O)O` [MLS001049131], the EC50 was greater than 300 µM.

For the compound `CC1=NN(C(=O)CCc2ccc3c(c2)OCO3)C(O)(C(F)(F)F)C1` (configuration not stated) [SMR000289779], the EC50 is greater than 300 µM.

`O=C(Nc1ccccn1)Nc1ccccc1[N+](=O)[O-]` [N-(2-nitrophenyl)-N'-pyridin-2-ylurea] registered an EC50 greater than 300 µM.

Compound `c1ccc(-c2nc(NCCCn3ccnc3)c3ccccc3n2)cc1` [MLS001007021] registered an EC50 of 33.6 µM.

Take `CCOC(=O)C(CC)Sc1ncnc2nc[nH]c12` (configuration not stated): the EC50 was greater than 300 µM.

`Cc1ccc(-c2nn(-c3ccccc3)cc2CNCc2ccccc2)cc1` [MLS000672046] registered an EC50 greater than 300 µM.

For the compound `CN(Cc1ccccc1)Cc1nc2c([nH]1)c(=O)n(C)c(=O)n2C` [1,3-dimethyl-8-[[methyl-(phenylmethyl)amino]methyl]-7H-purine-2,6-dione], the EC50 was greater than 300 µM.

For the compound `C=CCn1c(SCC(=O)Nc2ccc(Cl)cn2)nnc1C1CC1`, the EC50 was 40 µM.

As for `Cc1nnc2n(-c3ccccc3)c(=O)c3c4c(sc3n12)CC(C)CC4` (configuration not stated) [MLS000030539], the EC50 was greater than 300 µM.

On to `CCOc1ccccc1C=NNC(=O)c1nnn(-c2nonc2N)c1CN1CCCCCC1`, for which a half-maximal effect (EC50) was put at 0.105 µM.

The compound `Nc1nc(NCCCN2CCOCC2)nc(Nc2ccc(Cl)cc2)c1[N+](=O)[O-]` [N'-(4-Chloro-phenyl)-N-(3-morpholin-4-yl-propyl)-5-nitro-pyrimidine-2,4,6-triamine] displayed an EC50 of 1.47 µM.

Compound `COc1ccc2c(c1)cc1c(=O)n(CC(=O)NCCCN3CCOCC3)nc(C)n12` [SMR000624522] had an EC50 greater than 300 µM.

In the case of `O=Cc1cc(CCC(=O)O)ccc1O` [SMR000639316], the EC50 was greater than 300 µM.

Consider `CCn1c(SCC(=O)Nc2ccc(C(C)=O)cc2)nnc1C1CC1` [N-(4-acetylphenyl)-2-[(5-cyclopropyl-4-ethyl-1,2,4-triazol-3-yl)sulfanyl]acetamide], for which the EC50 is greater than 300 µM.

Compound `CN1/C(=C/C=C(/C#N)C(N)=O)C(C)(C)c2ccccc21` [(Z,4E)-2-cyano-4-(1,3,3-trimethyl-2-indolylidene)-2-butenamide] returned an EC50 of 15.5 µM.

For `CCOc1ccc(C(=O)NCC(=O)OCc2c(C)noc2C)cc1` [(3,5-dimethyl-1,2-oxazol-4-yl)methyl 2-[(4-ethoxybenzoyl)amino]acetate], the EC50 is greater than 300 µM.

With `COc1ccc(CNC(=O)CN(Cc2ccc(OC)cc2)C(=O)CCC(=O)Nc2ccccn2)cc1` [SMR000600506], the EC50 was determined as 52.5 µM.

In turn, `COC(=O)C1=CN(Cc2ccc(OC)c(OC)c2)C=C(C(=O)OC)C1c1ccccc1F` [1-(3,4-Dimethoxy-benzyl)-4-(2-fluoro-phenyl)-1,4-dihydro-pyridine-3,5-dicarboxylic acid dimethyl ester] returned an EC50 greater than 300 µM.

Consider `CCOC(=O)c1c(S(=O)(=O)NCC(=O)NCc2ccc(C)cc2)c(C)n(C)c1C` [ethyl 1,2,5-trimethyl-4-[[2-[(4-methylphenyl)methylamino]-2-oxoethyl]sulfamoyl]pyrrole-3-carboxylate], for which the EC50 was greater than 300 µM.

As to `Nc1nonc1-n1nnc(C(=O)NN=Cc2cccc(Cl)c2)c1CN1CCCC1`, the EC50 came to 5.25 µM.

For the compound `CCN1CCN(c2c(C(=O)c3ccc(OC)cc3)cnc3ccccc23)CC1` [[4-(4-ethylpiperazin-1-yl)quinolin-3-yl](4-methoxyphenyl)methanone], the EC50 was greater than 300 µM.

The compound `Cc1ccccc1NC(=O)CSc1nnc2ccc(-c3ccncc3)nn12` [SMR000808359] showed an EC50 greater than 300 µM.

Turning to `COc1cccc2cc(C(=O)OCc3ccccc3)c(=O)oc12` [(phenylmethyl) 8-methoxy-2-oxidanylidene-chromene-3-carboxylate], the EC50 is greater than 300 µM.

`CC1(C)CC(=O)C=C(Nc2ccc3c(c2)OCCO3)C1` [3-(2,3-dihydro-1,4-benzodioxin-6-ylamino)-5,5-dimethyl-1-cyclohex-2-enone] yielded an EC50 greater than 300 µM.

For the compound `Fc1ccc(CNc2nc(-c3cccnc3)nc3ccccc23)cc1` [N-[(4-fluorophenyl)methyl]-2-(3-pyridinyl)-4-quinazolinamine], the EC50 is greater than 300 µM.

The compound `CCOc1ccc(N2C(=O)S/C(=C\c3cccn3C)C2=O)cc1` [MLS000580380] returned an EC50 greater than 300 µM.

`O=c1c(-c2ccc(O)cc2)coc2cc(O)cc(O)c12` [Prunetol]: the EC50 is greater than 300 µM.

As for `CCOc1cc(C2C(C(=O)N3CCCCC3)=C(C)N=C3CC(C)(C)CC(=O)C32)ccc1O` (configuration not stated) [4-(3-ethoxy-4-hydroxyphenyl)-2,7,7-trimethyl-3-[oxo(1-piperidinyl)methyl]-1,4,6,8-tetrahydroquinolin-5-one], the EC50 was greater than 300 µM.

Turning to `O=C(NCc1cccs1)c1cc(C2CC2)on1` [SMR000127641], the EC50 is greater than 300 µM.

`Cc1ccccc1CSc1nnc([C@@H]2CCCN2)o1` [MLS000333752] returned an EC50 greater than 300 µM.

With `CC(C)C(=O)NC(C)C(c1cccs1)N1CCN(c2ccccc2)CC1` (configuration not stated) [SMR000016589], the EC50 was greater than 300 µM.

`CCn1c(SCC(=O)Nc2cc(Cl)ccc2OC)nnc1C1CC1` [MLS001220637]: the EC50 is greater than 300 µM.

As to `CC(C)Nc1nc(N=C(N)S)nc(NC(C)C)n1`, the EC50 was greater than 300 µM.

As for `O=C1CN=C(c2ccccc2)c2c(sc3c2CCCC3)N1`, the EC50 was found to be 27.8 µM.

`C=CCN=C(NC#N)SCC(=O)c1cccc(OC)c1` [[2-(3-methoxyphenyl)-2-oxidanylidene-ethyl] N-cyano-N'-prop-2-enyl-carbamimidothioate] showed an EC50 of 1.23 µM.

Regarding `CCN(CC)Cc1c(C(=O)N/N=C/c2ccncc2)nnn1-c1nonc1N`, the EC50 is 0.177 µM.

The compound `COC(CNC(=O)CCc1c(C)nc2c(c(C)nn2-c2ccc(C)cc2)c1C)OC` [N-(2,2-dimethoxyethyl)-3-[3,4,6-trimethyl-1-(4-methylphenyl)pyrazolo[3,4-b]pyridin-5-yl]propanamide] registered an EC50 greater than 300 µM.

`CCOc1cc(C(=O)OCC(=O)Nc2ccc(Cl)cn2)ccc1OCC(=O)N1CCOCC1` [MLS000334350] gave an EC50 of 61.8 µM.

`Nc1ncnc(Nc2cccc(C(F)(F)F)c2)n1` showed an EC50 greater than 300 µM.

Compound `O=C(Oc1ccc(F)c(F)c1)c1ccc2c(=O)n3c(nc2c1)CCC3` [9-oxo-2,3-dihydro-1H-pyrrolo[2,1-b]quinazoline-6-carboxylic acid (3,4-difluorophenyl) ester] came in with an EC50 greater than 300 µM.

`CC(=O)C(Sc1ccc2nnc(-c3ccc(F)cc3)n2n1)C(C)=O` [SMR000016797] registered an EC50 greater than 300 µM.

The compound `C[C@@H]1O[C@@H](Oc2c(-c3cc(O)c(O)c(O)c3)oc3cc(O)cc(=O)c-3c2O)[C@H](O)[C@H](O)[C@H]1O` [3-[(2S,3R,4R,5R,6S)-6-methyl-3,4,5-tris(oxidanyl)oxan-2-yl]oxy-5,7-bis(oxidanyl)-2-[3,4,5-tris(oxidanyl)phenyl]chromen-4-one] gave a concentration for a half-maximal effect (EC50) greater than 300 µM.

`CCc1nn(CC(=O)NCCN2CCN(C)CC2)c(=O)c2cc3c(OC)cccc3n12` [MLS001110984]: the EC50 is greater than 300 µM.

`O=C1CCCC2=Nc3ncnn3C(c3cccs3)C12` (configuration not stated) [9-thiophen-2-yl-5,6,7,9-tetrahydro-1H-[1,2,4]triazolo[5,1-b]quinazolin-8-one] had an EC50 greater than 300 µM.
